According to patent US11845752B2, “Substituted imidazo[1,5-a]pyrazines for the treatment of hepatitis B” (ALIGOS THERAPEUTICS, INC., priority 2020, dated 2023):

System: HBV
Assay: HBV-DNA antiviral assay using HepG2.117 cells (intracellular HBV DNA by qPCR)
Assay type: cell-based, HBV genotype D
Conditions: HBV DNA inhibition, 3 days incubation, read-out: EC50
How it was run: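 HepG2.117 cells (stably integrated genotype D HBV, Tet-off) seeded without doxycycline to induce pgRNA, then treated next day with 9 concentrations (4-fold dilutions, 2% DMSO) for 3 days at 37 °C. Intracellular HBV DNA quantified by qPCR against standard curve, viability by ATP content; inhibition relative to DMSO control, EC50/EC90/CC50 by non-linear regression.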

SMILES | EC50 [nM]
CC1Cn2c(c(C(=O)NCc3ccccc3-c3cccnn3)n(-c3ccc(N4CC5(CN(C)C5)C4)cc3)c2=O)CN1C(=O)c1ccc(Br)c(C(F)(F)F)c1 (single isomer, unassigned) [Compound 76b] | 500 to 5000
CC1Cn2c(c(C(=O)NCc3ccccc3-c3ccccn3)n(-c3ccc(N4CC5(CN(C)C5)C4)cc3)c2=O)CN1C(=O)c1ccc(Br)c(C(F)(F)F)c1 (single isomer, unassigned) [Compound 77b] | 50 to 500
CC1Cn2c(c(C(=O)NCc3ccccc3-c3ccncn3)n(-c3ccc4nn(CC(F)(F)F)cc4c3)c2=O)CN1C(=O)c1ccc(Br)c(C(F)(F)F)c1 (single isomer, unassigned) [Compound 79b] | < 50
CC1Cn2c(c(C(=O)NCc3ccccc3-c3ccncn3)n(-c3ccc(N4CCC5(CC4)CN(C)C5)cc3)c2=O)CN1C(=O)c1ccc(Br)c(C(F)(F)F)c1 (single isomer, unassigned) [Compound 80b] | 50 to 500
CC1Cn2c(c(C(=O)NCc3ccccc3-c3ncccn3)n(-c3ccc(OCC4(O)CC4)cc3)c2=O)CN1C(=O)c1ccc(Br)c(C(F)(F)F)c1 (single isomer, unassigned) [Compound 81b] | < 50
CC1Cn2c(c(C(=O)NCc3ccccc3-c3ccncn3)n(-c3ccc(N4CC5(CCN5C)C4)cc3)c2=O)CN1C(=O)c1ccc(Br)c(C(F)(F)F)c1 (single isomer, unassigned) [Compound 84b] | < 50
CC1Cn2c(c(C(=O)NCc3ccccc3-c3ccncn3)n(-c3ccc(N4CCC5(CN(C)C5)C4)cc3)c2=O)CN1C(=O)c1ccc(Br)c(C(F)(F)F)c1 (single isomer, unassigned) [Compound 88b] | 50 to 500
CC1Cn2c(c(C(=O)NCc3ccccc3-c3ccncn3)n(-c3ccc4oc(N)nc4c3)c2=O)CN1C(=O)c1ccc(Br)c(Cl)c1 (single isomer, unassigned) [Compound 92b] | 500 to 5000
CC1Cn2c(c(C(=O)NCc3ccccc3-c3ccncn3)n(-c3ccc4oc(N)nc4c3)c2=O)CN1C(=O)c1ccc(Br)c(C(F)(F)F)c1 (single isomer, unassigned) [Compound 93a, (6R*)-2-(2-amino-1,3-benzoxazol-5-yl)-7-[4-bromo-3-(trifluoromethyl)benzoyl]-6-methyl-3-oxo-N-{[2-(pyrimidin-4-yl)phenyl]methyl}-5H,6H,8H-imidazo[1,5-a]pyrazine-1-carboxamide] | 500 to 5000
CC1Cn2c(c(C(=O)NCc3ccccc3-c3ccncn3)n(-c3ccc4oc(N)nc4c3)c2=O)CN1C(=O)c1ccc(Br)c(C(F)(F)F)c1 (single isomer, unassigned) [Compound 93b, (6S*)-2-(2-amino-1,3-benzoxazol-5-yl)-7-[4-bromo-3-(trifluoromethyl)benzoyl]-6-methyl-3-oxo-N-{[2-(pyrimidin-4-yl)phenyl]methyl}-5H,6H,8H-imidazo[1,5-a]pyrazine-1-carboxamide] | 50 to 500
CC1Cn2c(c(C(=O)NCc3ccccc3-c3nccc(C(F)(F)F)n3)n(-c3ccc(N4CC5(CN(C)C5)C4)cc3)c2=O)CN1C(=O)c1ccc(Br)c(C(F)(F)F)c1 (single isomer, unassigned) [Compound 98a] | 50 to 500
CC1Cn2c(c(C(=O)NCc3ccccc3-c3nccc(C(F)(F)F)n3)n(-c3ccc(N4CC5(CN(C)C5)C4)cc3)c2=O)CN1C(=O)c1ccc(Br)c(C(F)(F)F)c1 (single isomer, unassigned) [Compound 98b] | 500 to 5000
CC1Cn2c(c(C(=O)NCc3ccccc3-c3ccn(CC(F)(F)F)n3)n(-c3ccc(N4CC5(CN(C)C5)C4)cc3)c2=O)CN1C(=O)c1ccc(Br)c(C(F)(F)F)c1 (single isomer, unassigned) [Compound 99b] | 50 to 500
CC1Cn2c(c(C(=O)NCc3ccccc3-c3ncccn3)n(-c3ccc4c(cnn4CC(F)(F)F)c3)c2=O)CN1C(=O)c1ccc(Br)c(C(F)(F)F)c1 (single isomer, unassigned) [Compound 100b] | < 50
CC1Cn2c(c(C(=O)NCc3ccccc3-c3ncccn3)n(-c3ccc4c(c3)nnn4CC(F)(F)F)c2=O)CN1C(=O)c1ccc(Br)c(C(F)(F)F)c1 (single isomer, unassigned) [Compound 103b] | < 50
CC1Cn2c(c(C(=O)NCc3c(F)cccc3Cl)n(-c3ccc4c(cnn4CC(F)(F)F)c3)c2=O)CN1C(=O)c1ccc(Br)c(C(F)(F)F)c1 (single isomer, unassigned) [Compound 104b] | 50 to 500
CC1Cn2c(c(C(=O)NCc3c(F)cccc3Cl)n(-c3ccc(N4CC5(CN(C)C5)C4)cc3)c2=O)CN1C(=O)c1ccc(Br)c(C(F)(F)F)c1 (single isomer, unassigned) [Compound 106b] | 50 to 500
CC1Cn2c(c(C(=O)NCc3ccccc3-c3ncccn3)n(-c3ccc4oncc4c3)c2=O)CN1C(=O)c1ccc(Br)c(C(F)(F)F)c1 (single isomer, unassigned) [Compound 108b] | 500 to 5000

Same assay, conditions: Hepatitis B virus, HepG2.117, 72 h, HBV DNA inhibition, 3 days incubation, read-out: EC50

SMILES | EC50 [nM]
CC1Cn2c(c(C(=O)NCc3ccccc3-c3cccnn3)n(-c3ccc(N4CC5(CN(C)C5)C4)cc3)c2=O)CN1C(=O)c1ccc(Br)c(C(F)(F)F)c1 (single isomer, unassigned) [Compound 76a] | 500 to 5000
CC1Cn2c(c(C(=O)NCc3ccccc3-c3ccccn3)n(-c3ccc(N4CC5(CN(C)C5)C4)cc3)c2=O)CN1C(=O)c1ccc(Br)c(C(F)(F)F)c1 (single isomer, unassigned) [Compound 77a] | < 50
CC1Cn2c(c(C(=O)NCc3ccccc3-c3ncccn3)n(-c3ccc(N4CC5(CN(C)C5)C4)cc3)c2=O)CN1C(=O)c1ccc(Br)c(C(F)(F)F)c1 (single isomer, unassigned) [Compound 78a] | < 50
CC1Cn2c(c(C(=O)NCc3ccccc3-c3ccncn3)n(-c3ccc4nn(CC(F)(F)F)cc4c3)c2=O)CN1C(=O)c1ccc(Br)c(C(F)(F)F)c1 (single isomer, unassigned) [Compound 79a] | 50 to 500
CC1Cn2c(c(C(=O)NCc3ccccc3-c3ccncn3)n(-c3ccc(N4CCC5(CC4)CN(C)C5)cc3)c2=O)CN1C(=O)c1ccc(Br)c(C(F)(F)F)c1 (single isomer, unassigned) [Compound 80a] | 50 to 500
CC1Cn2c(c(C(=O)NCc3ccccc3-c3ncccn3)n(-c3ccc(OCC4(O)CC4)cc3)c2=O)CN1C(=O)c1ccc(Br)c(C(F)(F)F)c1 (single isomer, unassigned) [Compound 81a] | 50 to 500
CC1Cn2c(c(C(=O)NCc3ccccc3-c3ccncn3)n(-c3ccc(N4CC5(CCN5C)C4)cc3)c2=O)CN1C(=O)c1ccc(Br)c(C(F)(F)F)c1 (single isomer, unassigned) [Compound 84a] | 50 to 500
CC1Cn2c(c(C(=O)NCc3ccccc3-c3ccncn3)n(-c3ccc(N4CCC5(CN(C)C5)C4)cc3)c2=O)CN1C(=O)c1ccc(Br)c(C(F)(F)F)c1 (single isomer, unassigned) [Compound 88a] | < 50
CC1Cn2c(c(C(=O)NCc3ccccc3-c3ccncn3)n(-c3ccc4oc(N)nc4c3)c2=O)CN1C(=O)c1ccc(Br)c(Cl)c1 (single isomer, unassigned) [Compound 92a] | 500 to 5000
CN[C@H](C)COc1ccc(-n2c(C(=O)NCc3ccccc3-c3ncccn3)c3n(c2=O)C[C@@H](C)N(C(=O)c2ccc(Br)c(C(F)(F)F)c2)C3)cc1 (single isomer, unassigned) [Compound 95a] | 50 to 500
C[C@H](COc1ccc(-n2c(C(=O)NCc3ccccc3-c3ncccn3)c3n(c2=O)C[C@@H](C)N(C(=O)c2ccc(Br)c(C(F)(F)F)c2)C3)cc1)N1CCOCC1 (single isomer, unassigned) [Compound 96a] | < 50
C[C@H](COc1ccc(-n2c(C(=O)NCc3ccccc3-c3ncccn3)c3n(c2=O)C[C@@H](C)N(C(=O)c2ccc(Br)c(C(F)(F)F)c2)C3)cc1)N(C)C (single isomer, unassigned) [Compound 97a] | 50 to 500
C[C@H](COc1ccc(-n2c(C(=O)NCc3ccccc3-c3ncccn3)c3n(c2=O)C[C@H](C)N(C(=O)c2ccc(Br)c(C(F)(F)F)c2)C3)cc1)N(C)C (single isomer, unassigned) [Compound 97b] | < 50
CC1Cn2c(c(C(=O)NCc3ccccc3-c3ccn(CC(F)(F)F)n3)n(-c3ccc(N4CC5(CN(C)C5)C4)cc3)c2=O)CN1C(=O)c1ccc(Br)c(C(F)(F)F)c1 (single isomer, unassigned) [Compound 99a] | 50 to 500
CC1Cn2c(c(C(=O)NCc3ccccc3-c3ncccn3)n(-c3ccc4c(cnn4CC(F)(F)F)c3)c2=O)CN1C(=O)c1ccc(Br)c(C(F)(F)F)c1 (single isomer, unassigned) [Compound 100a] | < 50
CC1Cn2c(c(C(=O)NCc3ccccc3-c3ncccn3)n(-c3ccc4c(cnn4C[C@@H](O)C(F)(F)F)c3)c2=O)CN1C(=O)c1ccc(Br)c(C(F)(F)F)c1 (single isomer, unassigned) [Compound 101a] | 50 to 500
CC1Cn2c(c(C(=O)NCc3ccccc3-c3ncccn3)n(-c3ccc4c(c3)nnn4CC(F)(F)F)c2=O)CN1C(=O)c1ccc(Br)c(C(F)(F)F)c1 (single isomer, unassigned) [Compound 103a] | 50 to 500
CC1Cn2c(c(C(=O)NCc3c(F)cccc3Cl)n(-c3ccc4c(cnn4CC(F)(F)F)c3)c2=O)CN1C(=O)c1ccc(Br)c(C(F)(F)F)c1 (single isomer, unassigned) [Compound 104a] | < 50
CC1Cn2c(c(C(=O)NCc3ccccc3-c3ncccn3)n(-c3ccc4nn(C[C@@H](O)C(F)(F)F)cc4c3)c2=O)CN1C(=O)c1ccc(Br)c(C(F)(F)F)c1 (single isomer, unassigned) [Compound 105a] | < 50
CC1Cn2c(c(C(=O)NCc3c(F)cccc3Cl)n(-c3ccc(N4CC5(CN(C)C5)C4)cc3)c2=O)CN1C(=O)c1ccc(Br)c(C(F)(F)F)c1 (single isomer, unassigned) [Compound 106a] | 50 to 500
CC1Cn2c(c(C(=O)NCc3ccccc3-c3ncccn3)n(-c3ccc4oncc4c3)c2=O)CN1C(=O)c1ccc(Br)c(C(F)(F)F)c1 (single isomer, unassigned) [Compound 108a] | 500 to 5000
